For data set [1], the system named is IKBKAP splicing (WT:MU IKBKAP mRNA). As to the kind of experiment: WT:MU IKBKAP mRNA ratio by RT-PCR (IDV) in FD lymphoblast cell lines; drug screen. The note with it: for correct IKBKAP splicing / production of wild-type IKBKAP transcript in FD cells: 10 μM compound in DMSO, 72 hours, FD lymphoblast cell line. It counts as cell-based, human.
Description: Drug Screen. The panel of 1040 independent compounds used was specifically designed for the NINDS sponsored Neurodegeneration Drug Screening Consortium (MicroSource Discovery Systems). A single FD lymphoblast cell line was cultured in 24 well format and treated with 10 μM compound dissolved in DMSO for 72 hours. RNA was extracted using Tri-Reagent™ (Molecular Research Center) and reverse transcription and IKBKAP PCR was performed as previously described^4.
An assay that provides stable and consistent measurement of the ratio of WT:MU FD IKBKAP mRNA splice products in lymphoblast cell lines was developed^4. This assay was employed as part of the Neurodegeneration Drug Screening Consortium′ to identify compounds that increase the relative production of WT mRNA. A single, standard FD lymphoblast cell line was assayed after 72 hours in the presence of 10 μM test drug, using compounds dissolved in DMSO.
For data set [2], the system named is IKBKAP mRNA (WT, MU, total). As to the kind of experiment: Real-time quantitative PCR of IKBKAP transcripts in FD lymphoblast cells. As to conditions: doses higher than 50 μM (data not shown). It counts as cell-based, human.
Another data set concerns IKAP protein. Kind of data set: Western blot of IKAP protein in FD lymphoblast cell lines. It is filed as cell-based, human. The note with it: increasing concentrations of kinetin, 72 hours, FD lymphoblast cells. The text has this: Western Blot Analysis. […] Extracted protein was run on a 6% polyacrylamide gel. The samples were transferred to nitrocellulose and stained with Ponceau-S to visualize protein loading. IKAP was detected using a monoclonal antibody raised against amino acids 796-1008 of IKAP (BD Bioscience) that detects the 150 kD full-length IKAP protein. The same blot was probed with an antibody to insulin-degrading enzyme (IDE) as a protein loading control. Bands were quantitated using an Alpha 2000™ Image Analyzer.

The subject of the next data set is FD lymphoblast cells. Kind of data set: Cellular toxicity in FD lymphoblast cells. It counts as cell-based, human. As to conditions: 400 μM. Here is the method:
By contrast, total IKBKAP mRNA was relatively unaffected, with a slight increase (˜1.5 fold) being detected only at doses higher than 50 μM (data not shown).

The test system of data set [3] is FD (MU) IKBKAP minigene exon 20. Kind of data set: IKBKAP minigene splicing assay, FD (MU) construct in HEK293 cells. The note with it: RT-PCR with T7 and BGH-R. It counts as cell-based, human. As to the method: (§1) In Vivo IKBKAP Minigene Splicing Assay. IKBKAP genomic DNA was amplified from an unaffected and an FD individual using primers in exon 19 and 21: EX19F-5′-[…] (SEQ ID NO:6) and EX21R-5′-[…] (SEQ ID NO:7). The amplified products were cloned into pcDNA3.1/V5-His Topo (Invitrogen) and sequenced for verification. […] Minigene constructs were transiently transfected 12 hours later using Genejuice (Novagen) as directed by the manufacturer. After 48 hours RNA was isolated using the RNAeasy kit (Qiagen) and reverse transcribed using Superscript™ II reverse transcriptase (Invitrogen) as described^4. PCR was performed using vector specific primers: T7 ([…]) (SEQ ID NO:8) and BGHR ([…]) (SEQ ID NO:9), which amplify both WT and MU transcripts, or the MU specific primer EX19/21F ([…]) (SEQ ID NO:10) and BGH-R to specifically amplify only MU transcripts. PCR was performed as follows: 26 cycles of [94° C., 30 s; 56° C., 30 s; 72° C., 30 s] and products resolved on a 1.5% agarose gel and visualized by ethidium bromide staining.
(§2) These constructs were transfected into HEK293 cells and RNA was amplified using vector-specific primers to avoid amplification of the endogenous IKBKAP message. […] Introduction of the FD mutation into the construct increased exon 20 skipping as predicted.

For data set [4], the system named is WT IKBKAP minigene exon 20. As to the kind of experiment: IKBKAP minigene splicing assay, WT construct in HEK293 cells. It counts as cell-based, human. The note with it: for inclusion of exon 20, WT minigene construct: RT-PCR with T7 and BGH-R. As to the method:
as §1, §2

The subject of data set [5] is NF1 minigene (exons 35 to 37, C>T at 6724). As to the kind of experiment: NF1 minigene splicing assay in HEK293 cells. The note with it: HEK293 cells transfected with NF1 minigene, with vs without kinetin. It counts as cell-based, human. As to the method:
NF1 genomic DNA was amplified from an unaffected and an NF1 individual using primers at the 5′ end of exon 35 and the 3′ end of exon 37. […] The amplified products were cloned into pcDNA3.1/V5-His Topo (Invitrogen) and sequenced for verification. […] Minigene constructs were transiently transfected 12 hours later using Genejuice (Novagen) as directed by the manufacturer. After 48 hours RNA was isolated using the RNAeasy kit (Qiagen) and reverse transcribed using Superscript™ II reverse transcriptase (Invitrogen) as described^4. PCR was performed using vector specific primers: T7 ([…]) (SEQ ID NO:8) and BGHR ([…]) (SEQ ID NO:9), which amplify both WT and MU transcripts. PCR was performed as follows: 30 cycles of [94° C., 30 s; 58° C., 30 s; 72° C., 30 s] and products resolved on a 1.5% agarose gel and visualized by ethidium bromide staining.

The next data set has as its system SMN2 exon 7. The note with it: cited from earlier work.
A further data set concerns human skin fibroblasts. The note with it: cultured human skin fibroblasts; cited from earlier work.
For data set [6], the system named is rat liver and kidney tissue. As to conditions: in vivo, po; cited from earlier work.
Data set [7] deals with IKBKAP WT:MU transcript ratio. Kind of data set: IKBKAP nonsense mediated decay analysis (cycloheximide) in FD lymphoblast cell lines. It counts as cell-based, human. The note with it: 50 μg/ml cycloheximide, four hours, FD cells. As to the method: RT-PCR amplification and fractionation of the amplified product on a 1.5% agarose gel was performed on cell extracts. WT:MU IKBKAP transcript ratios were determined using the integrated density value (IDV) obtained for each band and are shown beneath each lane. Primer sequences and PCR conditions have been previously described^4
Cell Culture and Treatment.
The IVS20^+6T→C mutation in IKBKAP leads to a frameshift and a premature termination codon in exon 21, which is expected to target the mutant transcript for decay via the nonsense-mediated mRNA decay (NMD) pathway^15. […] FD cells were exposed to cycloheximide, a translation inhibitor, to inhibit NMD of the mutant transcript^16.

For another data set, the system named is MYO5A exon 31 splicing. The note with it: reference 13; cited from earlier work.

Here are results for seven compounds from patent US9265766B2, “Methods for altering mRNA splicing and treating familial dysautonomia by administering benzyladenine” (The General Hospital Corporation, priority 2003, dated 2016).

Entries after “also recorded” stand apart in the source; their conditions may differ. Like-named read-outs stand apart in the source and are kept apart here.

`c1ccc(CNc2ncnc3nc[nH]c23)cc1` [benzyladenine, 6-benzylaminopurine]: the “enhancement of inclusion of exon 20 in IKBKAP transcripts” value in [1] (by 100 μM, FD lymphoblast assay) is recorded as “approximately 2 fold”.
Take `c1coc(CNc2ncnc3nc[nH]c23)c1` [kinetin, 6-furfurylaminopurine]: the “correct IKBKAP splicing / production of wild-type IKBKAP transcript in FD cells” value is reported as “dramatically enhanced correct splicing” in data set [1] and “significantly increases production of wild-type IKBKAP transcript” in data set [1] (listed as Kinetin). In data set [1] (100 μM kinetin, RT-PCR gel), the “MU IKBKAP band by densitometry” value is “barely discernable”. The “increase in total IKBKAP mRNA” value in [2] is given as about 1.5 fold. Further, the IKAP protein production entry in the data set with IKAP protein is given as “increase in production of IKAP protein”. Further, in the data set with FD lymphoblast cells, the cellular toxicity entry was “some cellular toxicity”. Also, the “inclusion of exon 20, FD (MU) minigene construct” value is reported as “enhanced inclusion of exon 20” in [3] and “enhances inclusion of exon 20” in [3] (listed as Kinetin). For the same compound, the “exon 20 skipping in WT construct transcripts (MU-specific PCR)” value in [4] (MU-specific primer EX19/21F) is “completely corrected; also recorded: absence of MU transcript in the WT lane”. The “inclusion of exon 20, WT minigene construct” value in data set [4] was “enhanced inclusion of exon 20”; in [4] (listed as Kinetin) it was “enhances inclusion of exon 20”. In data set [5], the “splicing of NF1 minigene” value is “altered splicing”. In addition, the “effect on exon 7 of SMN2” value in the data set on SMN2 exon 7 is reported as “no effect on skipping of exon 7”. Besides, the “cellular changes associated with in vitro aging of human skin cells” value in the data set with human skin fibroblasts is recorded as “delay or prevent a range of cellular changes”. The “maximum in vitro life span of human skin cells” value in the data set on human skin fibroblasts was “did not alter”. The “toxicity when administered orally to rats” value in [6] was “much less toxicity as compared to indoleacetic acid”.
`CC(=CCNc1ncnc2nc[nH]c12)CO` [zeatin, 6-(4-hydroxy-3-methylbut-2-enylamino)purine, reference compound]: the “effect on WT:MU IKBKAP ratio” value in data set [1] is recorded as “neither zeatin nor 2iP (dissolved in DMSO at 10 mM) had any effect”.
On to `C[C@@H]1C[C@@H]([C@H](O)CC2CC(=O)NC(=O)C2)C(=O)[C@@H](C)C1` [cycloheximide], for which the “WT:MU IKBKAP transcript ratio, cycloheximide alone” value in [7] was “decreasing the WT:MU transcript ratio”.
For the compound `CC[C@@]1(O)C[C@H](O[C@H]2C[C@H](N(C)C)[C@H](O[C@H]3C[C@H](O)[C@H](O[C@H]4CCC(=O)[C@H](C)O4)[C@H](C)O3)[C@H](C)O2)c2c(cc3c(c2O)C(=O)c2c(O)cccc2C3=O)[C@H]1C(=O)OC` [aclarubicin, reference compound], in [1], the “correct IKBKAP splicing / production of wild-type IKBKAP transcript in FD cells” value is on record as “no effect on IKBKAP splicing”. Also, the “inclusion of alternatively spliced exons in MYO5A (literature)” value in the data set on MYO5A exon 31 splicing is listed as “neither of these drugs promotes inclusion”. Moreover, the “effect on exon 7 of SMN2” value in the data set with SMN2 exon 7 is listed as “can promote the inclusion of exon 7”.
For `O=C(O)Cc1c[nH]c2ccccc12` [IAA, indoleacetic acid, reference compound], the “lipid peroxidation in liver and kidney tissue” value in data set [6] was “resulting in lipid peroxidation synthesis”.
With `CC(C)=CCNc1ncnc2nc[nH]c12` [2iP, 6-(γ,γ-dimethyallylamino)purine, reference compound], the “effect on WT:MU IKBKAP ratio” value in data set [1] (FD lymphoblast assay, tested at 1, 10, 50 and 100 μM) is listed as “neither zeatin nor 2iP (dissolved in DMSO at 10 mM) had any effect”.
